# In PubChem BioAssay AID2305 (GlaxoSmithKline (GSK), 2010):
# System: P. falciparum 3D7 growth, pLDH absorbance
# Assay: blood-stage malaria parasite growth potency – strain 3D7, dose response (AID 2305)
row,SMILES,IC50
1,N#Cc1ccccc1S(=O)(=O)N1CCCC(CNC(=O)[C@H](CC2CCCCC2)NC(=O)c2cc3ccccc3s2)C1 (stereo partly specified),510 nM
2,Oc1cc(-c2nc(C3(CNCc4ccc(Cl)cc4)CCCCC3)[nH]c2-c2ccncc2)ccc1Cl,130 nM
3,COc1ccc2sc(CNCCCNc3cc(=O)c4ccccc4[nH]3)c(Cl)c2c1,1070 nM
4,Cc1nc(-c2cccc(Nc3nccc(NCC(O)c4ccccc4)n3)c2)cs1 (stereo unspecified),790 nM
5,O=c1ccc2ccc(F)c3c2n1CC3CN1CCC(NCc2cccc(-c3cccs3)c2)CC1 (stereo unspecified),830 nM
6,COc1ccc(Br)cc1/C=C/C(=O)Nc1ccc2c(c1)CCCN(C)C2,1560 nM
7,O=C(Nc1ccc(F)cc1)NC1CCN(c2ccnc3cc(Cl)ccc23)CC1,410 nM
8,O=C(NCC1CCC(C(=O)NC2CCCc3ccccc32)CC1)c1ccc(O)c(-c2cccc([N+](=O)[O-])c2)c1 (stereo unspecified),940 nM
9,COc1cc2ncnc(Nc3ccc(OCc4ccccc4)c(I)c3)c2cc1OC,710 nM
10,Cc1cc(N[C@@H](CC(C)C)C(=O)NCc2cccc(F)c2)nc(Nc2ccccc2)n1,1090 nM
11,CC(C)(CNCc1cccc(Oc2cccc(C(F)(F)F)c2)c1)c1nc(-c2ccc(Cl)c(O)c2)c(-c2ccnc(N)n2)[nH]1,190 nM
12,O=C(O)c1cccnc1Sc1ccc(Cl)cc1,830 nM
13,CCCC(CC)n1ccc2c3c(N)nc(N)nc3ccc21 (stereo unspecified),10 nM
14,NC(N)=NC(=O)Nc1ccc(Cl)c(C(F)(F)F)c1,590 nM
15,CC(C)CN1CCCN(Cc2cccc(NC(=O)c3cc4ccccc4s3)c2)CC1,1770 nM
16,CCOC(=O)c1ccc(CC(C)NCC(O)c2cccc(C(F)(F)F)c2)cc1 (stereo unspecified),220 nM
17,O=C(Nc1ccc(OC2CCN(Cc3ccc(F)cc3)C2)c(Cl)c1)c1ccsc1 (stereo unspecified),540 nM
18,N#Cc1ccc(NC2(C(=O)N3CCN(c4cccc(Cl)c4)CC3)CC2)c2ccccc12,1150 nM
19,COc1ccc2c(NN=Cc3cccc(C)n3)ccnc2c1,760 nM
20,O=C(/C=C/c1ccc(Cl)cc1)NCCCCCN1CCC(C(=O)Nc2ccc(Cl)cc2)CC1,830 nM
21,COCCn1c(SC(C)C(=O)Nc2cc(C(F)(F)F)ccc2Cl)nc2ccccc2c1=O (stereo unspecified),630 nM
22,CC(C)(C)OC(=O)N(Cc1cc(-n2nnnc2C(F)(F)F)ccc1O)[C@H]1CCCN(C(=O)OC(C)(C)C)[C@H]1c1ccccc1,720 nM
23,CCNc1cc(C(=O)N[C@@H](Cc2ccccc2)[C@H](O)CNC(C)(C)c2cccc(OC)c2)cc(N2CCCC2=O)c1,140 nM
24,O=C(NCCN1CCC(c2ccncc2)CC1)c1cccc(Nc2nccc(Nc3ccc(Oc4ccccc4)cc3)n2)c1,170 nM

row,SMILES,IC50
1,COc1ccc2nccc([C@@H](O)CN3CCC(NC(=O)c4ccc5nc(-n6cccc6)sc5c4)CC3)c2c1,1000 nM
2,Cc1ccc(C2CCN(CCCCNC(=O)c3ccc(-c4ccc(C(F)(F)F)cc4)cc3)CC2)c(O)c1,130 nM
3,COc1ccccc1NC(=O)CSc1nc2cccnc2n1-c1ccccc1OC,360 nM
4,COc1ccc(-c2cccc(NC(=O)c3ccccc3)c2)cc1CN1CCCN(C)CC1,730 nM
5,O=[N+]([O-])c1ccccc1C=NNc1ccnc2ccccc12,860 nM
6,CCN(CC)S(=O)(=O)c1cc(-c2ccc(=O)n(CC(=O)c3ccc(C)cc3)n2)ccc1C,890 nM
7,CC(C)C1=C[C@H]2C[C@]3(C4OCCO4)[C@@H]4CC[C@@H](C)[C@H]4C[C@@]2(C(=O)OCC2COCO2)[C@]13C(=O)OC(c1ccccc1)c1ccccc1 (stereo partly specified),850 nM
8,FC(F)(F)c1ccc2nc(-c3ccc(-c4cccc(CN5CCN(CCN6CCOCC6)CC5)c4)cc3)[nH]c2c1,160 nM
9,COc1ccc(CNC2CCN(C)CC2)cc1-c1ccc(S(=O)(=O)NCC2CCCO2)s1 (stereo unspecified),800 nM
10,O=C(c1cccc(-c2cccc(-c3nc4ccc(C(F)(F)F)cc4[nH]3)c2)c1)N1CCCCC1CN1CCC(O)C1 (stereo unspecified),280 nM
11,COc1cccc(C(=O)N2CCN(Cc3cccc(NC(=O)c4cccs4)c3)CC2)c1,480 nM
12,CCNc1cc(C(=O)N[C@@H](Cc2ccccc2)[C@H](O)CNCc2cccc(OC)c2)c(OC)c(N2CCCCS2(=O)=O)c1,690 nM
13,NS(=O)(=O)c1cccc(-c2ccc3nccc(-c4cccc(S(N)(=O)=O)c4)c3c2)c1,1270 nM
14,c1ccc(Oc2ccc(Nc3ccnc4cc(-c5cccc(CN6CCOCC6)c5)ccc34)cc2)cc1,340 nM
15,O=C(Nc1ccc(Cl)cc1Cl)N[C@H]1CCN(CCCCCNC(=O)[C@@H]2C[C@H]2c2ccc(Cl)c(Cl)c2)C1,990 nM
16,CCOc1cc2ncnc(Nc3ccc(OCc4ccccc4Br)c(OC)c3)c2cc1OCC,470 nM
17,Cc1ccc(NC(=O)NC2CCN(CCCCCNC(=O)/C=C/c3ccc(Cl)c(Cl)c3)CC2)cc1,690 nM
18,Cc1ccc(NC(=O)N2CCN(CCCCCNC(=O)/C=C/c3ccc(Cl)c(Cl)c3)CC2)cc1C,1100 nM
19,CN(C)C(=O)c1cc(CNCc2ccccc2)ccc1-c1cccc(CNCc2ccc(-c3ccccc3)cc2)c1,1050 nM
20,CN(C)Cc1cccc(-c2cc3c(-c4cnn(C)c4)c(Cl)cnc3[nH]2)c1,910 nM
21,CN(CCC(CCN1CCC(c2c[nH]c3ccccc23)CC1)c1ccccc1)C(=O)Nc1ccc(Cl)c(Cl)c1 (stereo unspecified),1190 nM
22,N#Cc1ccc(-c2ccc(C(=O)NCCCCN3CCC(c4cn(CCCO)c5ccccc45)CC3)cc2)cc1,750 nM
23,CS(=O)(=O)Cc1ccc(Nc2ncc(Cl)c(Nc3cccnc3C(N)=O)n2)cc1,870 nM
24,Nc1nc2ccc(S(=O)(=O)Nc3ccc(C(=O)N[C@@H](CCC(=O)O)C(=O)O)c(F)c3)cc2c(=O)[nH]1,820 nM

row,SMILES,IC50
1,Cc1cccc2[nH]c(-c3ccc(-c4ccc(CN5CCN(C6CCN(C)CC6)CC5)cc4)s3)nc12,140 nM
2,CCN(CC)CCN1C(=O)c2oc3ccc(F)cc3c(=O)c2C1c1cccc(Cl)c1 (stereo unspecified),530 nM
3,NC1CCN(CCNCc2cccc(-c3ccc(-c4nc5ccc(F)cc5[nH]4)cc3)c2)C1 (stereo unspecified),730 nM
4,O=S1C(Cl)=C(c2ccc(Cl)cc2)c2ccc(Cl)cc21 (stereo unspecified),990 nM
5,O=C(NCCc1cccc(Cl)c1Cl)c1cnc(N2CCN(c3ccncc3)CC2)c(Cl)c1,700 nM
6,Cn1nc(-c2ccc(Cl)cc2)c2cc(C(=O)NCCN3CCOCC3)sc21,720 nM
7,CNCCNCc1cccc(-c2cccc(-c3nc4ccc(F)cc4[nH]3)c2)c1,670 nM
8,COc1ccc(-c2cccc(NC(=O)c3cccs3)c2)cc1CN1CCCN(C)CC1,700 nM
9,O=C(Nc1cccc(-c2cccc(-c3nc4ccc(F)cc4[nH]3)c2)c1)c1ccoc1,330 nM
10,Cc1nc(Nc2ccc(C)c(Cl)c2)c2c(C)noc2n1,890 nM
11,CN1CCN(Cc2c(O)ccc3c(=O)c(Oc4ccc(C(C)(C)C)cc4)c(C(F)(F)F)oc23)CC1,810 nM
12,CC(NC(=O)c1ccc(O)c(-c2ccc(Cl)c(Cl)c2)c1)C(=O)NCCN1CCOCC1 (stereo unspecified),960 nM
13,O=C(Nc1cccc(-c2cccc(-c3nc4ccc(C(F)(F)F)cc4[nH]3)c2)c1)c1ccoc1,280 nM
14,COc1ccc(-c2ccc(NC(=O)c3ccc(C#N)cc3)cc2)cc1CN1CCNCC1,510 nM
15,O=C(Cn1c(CCc2cccc(F)c2F)cc(=O)c2ccccc21)N(CCN1CCCC1)Cc1ccc(-c2ccc(C(F)(F)F)cc2)cc1,860 nM
16,CCn1cc2c3c(cc(C(=O)N[C@@H](Cc4ccccc4)[C@H](O)CNCc4cccc(OC)c4)cc31)N(C)S(=O)(=O)CC2,670 nM
17,Cc1ccccc1Oc1nc2ccccc2nc1SCC(=O)NC(C)C,200 nM
18,Cc1ccc2[nH]c3c(NCCCN4CCOCC4)ncnc3c2c1,940 nM
19,CC(Cc1ccc(NC(=O)[C@H](C)NCCc2cccc(Cl)c2)cc1)NCCc1cccc(Cl)c1 (stereo partly specified),660 nM
20,O=C(NCCN1CCCc2ccccc21)C1CCN(c2nc(-c3ccc(Cl)cc3)no2)CC1,690 nM
21,CCCCCOc1ccc(NC2=CC(=O)C(=O)c3ccccc32)cc1,240 nM
22,Cc1cc(-c2nc3ccc(N4CCN(C)CC4)cc3[nH]2)nn1Cc1cc(Cl)ccc1OCC(C)C,880 nM
23,Fc1ccc(-c2oc(C3CCN(CCc4ccc(-c5nc(=S)o[nH]5)cc4)CC3)nc2COCC(F)(F)F)cc1,420 nM
24,COc1nc2c(CCN3CC[C@H](NCc4cc(C#N)c5c(c4)CCO5)[C@H](O)C3)ccnc2cc1F,350 nM

row,SMILES,IC50
1,O=C(NC1CCCCN(Cc2ccccc2O)C1)c1ccc(Cl)c(Cl)c1 (stereo unspecified),750 nM
2,CCC1(C)CC(CCNCc2ccccc2O)(c2ccc(F)cc2)CCO1 (stereo unspecified),880 nM
3,Fc1cc(Cl)ccc1Nc1ccnc2cc(-c3ccc(CNCCN4CCOCC4)o3)ccc12,280 nM
4,COc1ccc(OC)c(NC(=O)C2c3ccccc3C(=O)N(CC(C)C)C2c2cccs2)c1 (stereo unspecified),810 nM
5,Cn1c(Nc2cc(C(C)(C)C)on2)nc2cc(Nc3ccnc(Nc4cccc(S(=O)(=O)N5CCOCC5)c4)n3)ccc21,530 nM
6,c1ccc(Oc2ccc(Nc3ccnc(Nc4ccc5cn[nH]c5c4)n3)cc2)cc1,730 nM
7,CN(C)CCOc1ccc(-c2cc(-c3ccncc3)c(-c3ccc(Cl)c(O)c3)[nH]2)cc1,220 nM
8,COc1ccccc1C1CCN(CCCCNC(=O)c2ccc(/C=C/c3cc(Cl)cc(Cl)c3)cc2)CC1,720 nM
9,N#Cc1ccc2c(c1)CCN(CCC1CCC(NC(=O)c3cccc(-c4ccc(F)cc4)c3)CC1)CC2 (stereo unspecified),820 nM
10,COc1ccc(-c2ccc(NC(=O)c3cccc(Cl)c3)c(F)c2)cc1CN1CCCN(C)CC1,680 nM
11,CN(C)c1nc2cc(-n3cnc4cc(-c5ccc(Cl)cc5)sc4c3=O)ccc2n1CCCN1CCCC1,850 nM
12,CC[C@H]1CN2CC[C@@H]1C[C@H]2[C@H](O)c1cc(-c2cc(Cl)cc(Cl)c2)nc2ccc(OC)cc12,240 nM
13,Nc1nc(N)c2c(n1)CCC(c1ccccc1)C2 (stereo unspecified),1010 nM
14,Nc1cc(-c2ccc3c(N)nccc3c2)ccc1Cl,1540 nM
15,Cc1cc(N2CCCN(C)CC2)nc(Nc2ccc(Cl)cc2)n1,800 nM
16,CC[C@H]1CN2CCc3cc(OC)c(OC)cc3[C@@H]2C[C@@H]1C[C@H]1NCCc2cc(OC)c(OC)cc21,210 nM
17,COc1csc2cc(Br)ccc12,860 nM
18,CCN(CC)c1nc(-c2ccccc2)cc(-c2ccccc2)c1C#N,450 nM
19,O=[N+]([O-])c1ccc(C(O)CNCCc2ccccc2)cc1OCc1ccccc1 (stereo unspecified),910 nM
20,CCCCCCN(CCCCCC)CCCCNc1c2ccc(Cl)cc2nc2ccc(OC)cc12,540 nM
21,CC(C)CCNc1nc(NCCCc2ccccc2)c2cc(O)ccc2n1,170 nM
22,Cc1ccc2c(c1)nc(N)n2C[C@H](O)c1ccccc1,580 nM
23,NCCCCNc1cc(-c2ccnc(Nc3cccc(Cl)c3)n2)ccn1,280 nM
24,CC(CN(C)C)C(=O)Nc1cccc(-c2ccc(-c3nc4ccc(F)cc4[nH]3)cc2)c1 (stereo unspecified),650 nM
